Where “and” joins values, the source holds several entries; their conditions need not be identical. Equal entries are not always repeated. Where two headings read alike, the source gives them in different places. Each block holds one molecule with its values, some of them ahead of it.
Columns and labels:
COX-2 = molecular target: T1, COX-2 (Homo sapiens, UniProt P35354); assay: COX-2 inhibition assay (Cayman Chem kit)
T1 sequence (P35354 18-604): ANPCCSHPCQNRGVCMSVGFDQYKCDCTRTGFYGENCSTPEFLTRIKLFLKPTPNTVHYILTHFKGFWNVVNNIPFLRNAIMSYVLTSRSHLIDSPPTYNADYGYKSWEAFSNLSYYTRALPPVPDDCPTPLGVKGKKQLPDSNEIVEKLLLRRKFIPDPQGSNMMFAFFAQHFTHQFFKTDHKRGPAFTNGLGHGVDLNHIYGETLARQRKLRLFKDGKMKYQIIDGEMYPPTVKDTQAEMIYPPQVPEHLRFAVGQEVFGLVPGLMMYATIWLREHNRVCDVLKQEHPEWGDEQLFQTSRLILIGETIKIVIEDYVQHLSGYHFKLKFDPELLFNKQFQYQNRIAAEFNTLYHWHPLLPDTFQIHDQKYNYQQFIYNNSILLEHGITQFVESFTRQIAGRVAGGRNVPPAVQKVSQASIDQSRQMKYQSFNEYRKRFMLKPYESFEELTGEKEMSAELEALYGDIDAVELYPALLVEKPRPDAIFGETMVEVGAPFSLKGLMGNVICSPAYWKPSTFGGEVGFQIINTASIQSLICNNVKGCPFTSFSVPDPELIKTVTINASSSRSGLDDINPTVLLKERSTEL
Experimental: (§2) COX-1 (Ovine) and COX-2 (Human) inhibition assays were performed using the corresponding Cayman Chem kits. The assays were performed according to the manufacturer’s instructions. Arachidonic acid (1.1 mM) was used as substrate. Reaction was followed at 590 nm in a BioTek Instrument Synergy II microplate reader.

COX-1 = molecular target: T2, COX-1 (Ovis aries, UniProt P05979); assay: COX-1 inhibition assay (Cayman Chem kit)
T2 sequence (P05979 25-600): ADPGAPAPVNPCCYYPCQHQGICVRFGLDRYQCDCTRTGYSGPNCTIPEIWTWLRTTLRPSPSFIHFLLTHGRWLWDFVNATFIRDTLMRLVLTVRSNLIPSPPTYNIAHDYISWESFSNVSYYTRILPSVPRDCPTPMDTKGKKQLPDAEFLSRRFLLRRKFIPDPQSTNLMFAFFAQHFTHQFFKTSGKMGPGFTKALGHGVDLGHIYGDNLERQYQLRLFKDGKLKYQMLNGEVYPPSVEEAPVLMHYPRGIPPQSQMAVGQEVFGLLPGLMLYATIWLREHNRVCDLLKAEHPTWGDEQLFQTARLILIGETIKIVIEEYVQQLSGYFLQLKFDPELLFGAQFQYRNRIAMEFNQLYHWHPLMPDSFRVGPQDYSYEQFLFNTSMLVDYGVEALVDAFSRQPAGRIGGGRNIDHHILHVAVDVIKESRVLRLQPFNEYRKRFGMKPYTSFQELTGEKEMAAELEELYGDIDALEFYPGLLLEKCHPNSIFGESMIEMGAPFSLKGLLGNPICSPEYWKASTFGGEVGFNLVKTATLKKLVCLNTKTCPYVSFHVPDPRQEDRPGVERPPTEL
Experimental: as §2

[1] = test system: L. grandiflorum callus cultures; assay: Biomass accumulation of callus cultures; format: cell-based, Linum grandiflorum; settings: harvested day 30
Experimental: (§1) Both the cotyledon (0.5 cm) and hypocotyl (1.0 cm) explants of L. grandiflorum of 5-day old seedlings, grown in vitro, were employed as the source of the explants and inoculated on three different experimental media containing sucrose (30g/L), agar (8 g/L) along with various concentrations of α-naphthaleneacetic acid (NAA: 0.1, 1.0, 2.5, 5.0, 10 mg/L), thidiazuron (TDZ: 0.1, 1.0, 2.5, 5.0, 10 mg/L) and a combination of both (TDZ: 0.1, 1.0, 2.5, 5.0, 10 mg/L and NAA: 0.1 mg/L constant) and placed in a growth room at 25 ± 2 °C temperature, using light intensity of 40 μmol/m^2/s at around a 16/8 h (light/dark) photoperiod. Four explants were inoculated for each condition. All experiments were conducted twice for each treatment. Media without PGRs addition were used as controls. The cultures were harvested at day 30 after inoculation. Biomass determination (fresh weights (FW) and dried weight (DW)) were determined for each condition. For dry weight (DW) estimation, cells were frozen and lyophilized 48 h.

[2] = test system: L. grandiflorum hypocotyl and cotyledon explants; assay: Callus induction frequency on MS medium with PGRs; format: cell-based, Linum grandiflorum; settings: 1.0 mg/L NAA
Experimental: as §1

[3] = read-out: COX-2 IC50 (in µM), purified (neo)lignans
[4] = read-out: COX-1 IC50 (in µM), purified (neo)lignans

- IC50 (COX-2): 34.6 ± 2.9 µM
- IC50 (COX-1): 24.2 ± 6.9 µM
Structure (SMILES): COc1cc(C[C@H]2CO[C@H](c3ccc(O)c(OC)c3)[C@H]2CO)ccc1O [LARI, lariciresinol]

- IC50 (COX-2; [3]): 19.2 ± 2.5 µM
- IC50 (COX-1; [4]): 51.3 ± 0.3 µM
Structure (SMILES): COc1cc(C2Oc3c(OC)cc(/C=C/CO)cc3C2CO)ccc1O (stereo not shown) [DCA, dehydrodiconiferyl alcohol]

- IC50 (COX-2; [3]): 32.7 ± 0.8 µM
- IC50 (COX-1; [4]): 21.7 ± 1.9 µM
Structure (SMILES): COc1cc(C[C@@H](CO)[C@H](CO)Cc2ccc(O)c(OC)c2)ccc1O [SECO, secoisolariciresinol]

Structure (SMILES): O=C(O)Cc1cccc2ccccc12 [NAA, α-naphthalene acetic acid]
- biomass accumulation (DW) ([1]; cotyledon-derived callus, 1.0 mg/L NAA): 11.4 g/L
- biomass accumulation (DW) ([1]; hypocotyl-derived callus): 13 g/L
- callus induction frequency ([2]; cotyledon explants): 87%
- callus induction frequency ([2]; hypocotyl explants): 95% and 95.2%

— article PMC8348589, “Scarlet Flax Linum grandiflorum (L.) In Vitro Cultures as a New Source of Antioxidant and Anti-Inflammatory Lignans” (Molecules, 2021)
